Tests used:
PLK4 (h) = PLK4 (h) (Homo sapiens, UniProt O00444); assay: PLK-4 human kinase inhibition, scintillation proximity assay (SPA); type: biochemical; details: read-out: PLK4 pIC50 (converted)
GSK3β (h) = GSK3β (h) (Homo sapiens, UniProt P49841); assay: GSK-3β human kinase inhibition, SPA; type: biochemical; details: read-out: GSK3b pIC50 (converted)
Procedure, shortened: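 Radiometric: 33P-labelled peptide captured on streptavidin SPA beads after EDTA stop and imaged on Leadseeker. Reaction ran 1 h at RT, 1 μM cold ATP with 2 nM [γ-33P]ATP, 1 μM biotin-peptide substrate, human GSK3β 1 μg/ml, pH 7.4 Tris buffer.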

PLK1 T210D (h) = PLK1 T210D (h) (Homo sapiens, UniProt P53350, T210D); assay: PLK1 human kinase inhibition, SPA; type: biochemical; details: read-out: PLK1 pIC50 (converted)
PLK1 T210D (h), sequence (P53350 whole entry T210D): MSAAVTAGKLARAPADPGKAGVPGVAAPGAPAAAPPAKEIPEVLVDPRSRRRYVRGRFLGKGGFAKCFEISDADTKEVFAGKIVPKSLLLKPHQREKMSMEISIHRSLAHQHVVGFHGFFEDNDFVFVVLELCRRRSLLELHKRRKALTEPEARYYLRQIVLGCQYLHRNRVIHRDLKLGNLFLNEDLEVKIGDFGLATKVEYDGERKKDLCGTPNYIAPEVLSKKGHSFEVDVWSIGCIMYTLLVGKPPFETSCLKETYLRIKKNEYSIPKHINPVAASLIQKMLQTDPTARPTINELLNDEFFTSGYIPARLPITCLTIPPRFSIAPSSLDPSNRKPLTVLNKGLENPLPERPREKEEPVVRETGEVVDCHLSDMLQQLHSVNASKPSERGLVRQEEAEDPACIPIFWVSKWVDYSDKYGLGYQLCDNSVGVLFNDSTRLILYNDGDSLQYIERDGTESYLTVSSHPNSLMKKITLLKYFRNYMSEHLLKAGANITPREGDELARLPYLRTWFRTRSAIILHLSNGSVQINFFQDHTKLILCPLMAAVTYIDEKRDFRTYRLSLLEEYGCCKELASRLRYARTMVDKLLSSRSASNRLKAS
Procedure, shortened: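 Kinase incubated 40 min at room temperature with 0.1 μM ATP (2 nM [γ-33P]ATP tracer), 2 μM biotinylated peptide, pH 8.0 Hepes buffer with 2 mM MnCl2 and 1 mM DTT; enzyme at 0.125 ng/ml. Stopped with EDTA; 33P-peptide bound to streptavidin scintillant beads and imaged.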

MDA-MB-231 = assay: Cellular proliferation assay (Alamar blue), MDA-MB-231; type: cell-based; details: Homo sapiens, 10% FCS, 72 hours with compound, Alamar blue 24 h, read-out: MDA/MB231 (cellular proliferation assay, Table 4) (converted)
Procedure, shortened: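 After a 24 h compound-free attachment period, cells in 10% FCS medium are treated for 72 h at 37° C. Resazurin conversion is then quantified by fluorescence, with dye incubation lasting 4 h for HCT-116, 6 h for U87-MG and 24 h for A2780 or MDA-MB-231.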

PLK4 (h), sequence (O00444 whole entry): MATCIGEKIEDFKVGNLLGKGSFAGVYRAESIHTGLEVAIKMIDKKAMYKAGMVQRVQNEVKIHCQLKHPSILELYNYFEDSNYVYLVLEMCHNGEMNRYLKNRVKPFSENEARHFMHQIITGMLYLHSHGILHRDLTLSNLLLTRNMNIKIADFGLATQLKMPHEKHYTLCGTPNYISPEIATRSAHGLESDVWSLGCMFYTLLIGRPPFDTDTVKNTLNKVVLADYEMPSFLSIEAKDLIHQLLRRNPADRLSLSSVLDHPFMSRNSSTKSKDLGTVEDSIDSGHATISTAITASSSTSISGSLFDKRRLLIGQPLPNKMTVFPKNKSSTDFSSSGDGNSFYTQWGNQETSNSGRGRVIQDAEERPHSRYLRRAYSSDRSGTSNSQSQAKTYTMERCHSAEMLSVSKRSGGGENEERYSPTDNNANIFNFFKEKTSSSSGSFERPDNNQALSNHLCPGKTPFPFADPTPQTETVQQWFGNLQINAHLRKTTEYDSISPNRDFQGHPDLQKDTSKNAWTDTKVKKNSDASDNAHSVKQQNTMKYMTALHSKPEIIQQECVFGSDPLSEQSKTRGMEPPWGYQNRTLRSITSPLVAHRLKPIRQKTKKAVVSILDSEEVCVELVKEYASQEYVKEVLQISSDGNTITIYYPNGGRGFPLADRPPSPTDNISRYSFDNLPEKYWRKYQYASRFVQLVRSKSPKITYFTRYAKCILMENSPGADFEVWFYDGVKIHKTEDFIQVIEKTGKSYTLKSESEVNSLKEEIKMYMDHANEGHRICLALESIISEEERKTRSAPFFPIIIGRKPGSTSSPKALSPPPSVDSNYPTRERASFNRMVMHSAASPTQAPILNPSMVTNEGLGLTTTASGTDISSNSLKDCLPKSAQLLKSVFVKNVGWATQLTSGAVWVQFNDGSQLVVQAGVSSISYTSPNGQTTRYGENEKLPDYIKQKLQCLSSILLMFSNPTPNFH
GSK3β (h), sequence (P49841 whole entry): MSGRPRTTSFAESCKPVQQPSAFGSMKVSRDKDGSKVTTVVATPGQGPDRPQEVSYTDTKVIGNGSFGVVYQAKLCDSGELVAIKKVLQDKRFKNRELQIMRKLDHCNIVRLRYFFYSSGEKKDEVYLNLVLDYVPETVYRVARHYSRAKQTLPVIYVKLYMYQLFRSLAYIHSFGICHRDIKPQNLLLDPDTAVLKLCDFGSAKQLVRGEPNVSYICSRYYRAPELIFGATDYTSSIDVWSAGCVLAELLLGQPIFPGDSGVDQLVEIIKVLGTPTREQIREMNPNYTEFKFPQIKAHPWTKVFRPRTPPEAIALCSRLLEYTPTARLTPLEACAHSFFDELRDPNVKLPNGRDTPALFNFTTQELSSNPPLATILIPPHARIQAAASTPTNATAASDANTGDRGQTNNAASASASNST

IC50 (PLK4 (h)) | IC50 (GSK3β (h)) | IC50 (PLK1 T210D (h)) | IC50 (MDA-MB-231) | Compound
0.0479 µM | 0.724 µM | > 10 µM | > 10 µM | O=C1NCc2cccc(c2)-c2ccnc(n2)Nc2ccc(N3CCOCC3)c(c2)CN2CCC[C@@H]12 [Compound 1]
0.0692 µM | 0.0309 µM | > 10 µM | 1.7 µM | O=C1NCc2cccc(c2)-c2ccnc(n2)Nc2cc(CN3CCOCC3)cc(c2)CN2CCC[C@@H]12 [Compound 22]
0.0776 µM | 0.0871 µM | > 10 µM | > 10 µM | CN(C)C(=O)c1ccc2cc1CN1CCC[C@H]1C(=O)NCc1cccc(c1)-c1ccnc(n1)N2 [Compound 24]
0.162 µM | 0.112 µM | > 10 µM | 2.09 µM | O=C1NCc2cccc(c2)-c2ccnc(n2)Nc2cc(CNC3CCOCC3)cc(c2)CN2CCC[C@@H]12 [Compound 29]
0.162 µM | 0.024 µM | > 10 µM | 0.257 µM | CN(C)Cc1cc2cc(c1)Nc1nccc(n1)-c1cccc(c1)CNC(=O)[C@@H]1CCCN1C2 [Compound 30]
0.166 µM | 0.11 µM | > 10 µM | 1.55 µM | CN(C)CCNCc1cc2cc(c1)Nc1nccc(n1)-c1cccc(c1)CNC(=O)[C@@H]1CCCN1C2 [Compound 31]
0.178 µM | 0.145 µM | > 10 µM | 0.832 µM | COCCNCc1cc2cc(c1)Nc1nccc(n1)-c1cccc(c1)CNC(=O)[C@@H]1CCCN1C2 [Compound 33]
0.219 µM | 0.129 µM | > 10 µM | 1.82 µM | O=C1NCc2cccc(c2)-c2ccnc(n2)Nc2cc(CNC3CCCCC3)cc(c2)CN2CCC[C@@H]12 [Compound 36]
0.288 µM | 0.162 µM | > 10 µM | > 10 µM | COCCNC(=O)c1ccc2cc1CN1CCC[C@H]1C(=O)NCc1cccc(c1)-c1ccnc(n1)N2 [Compound 40]
0.347 µM | 0.263 µM | > 10 µM | > 10 µM | O=C(NC1CCCCC1)c1ccc2cc1CN1CCC[C@H]1C(=O)NCc1cccc(c1)-c1ccnc(n1)N2 [Compound 41]
0.355 µM | 0.331 µM | > 10 µM | 1.91 µM | CN(C)CCNC(=O)c1ccc2cc1CN1CCC[C@H]1C(=O)NCc1cccc(c1)-c1ccnc(n1)N2 [Compound 42]
0.427 µM | 0.204 µM | > 10 µM | > 10 µM | O=C(NC1CCOCC1)c1ccc2cc1CN1CCC[C@H]1C(=O)NCc1cccc(c1)-c1ccnc(n1)N2 [Compound 46]
0.661 µM | 9.12 µM | > 10 µM | > 10 µM | O=C1NCCCc2cc(ccn2)-c2ccnc(n2)Nc2ccc(N3CCOCC3)c(c2)CN2CCCC12 (stereo not drawn) [Compound 48]
0.537 µM | 2.75 µM | > 10 µM | > 10 µM | CN1CCNC(=O)C2CCN(CC2)Cc2cc(Br)cc(c2)Nc2nccc(n2)-c2ccc(cc2)C1 [Compound 60]
0.724 µM | 7.59 µM | > 10 µM | > 10 µM | CC(C)Nc1cc2cc(c1)Nc1nccc(n1)-c1ccc(cc1)CN(C)CCNC(=O)C1CCN(CC1)C2 [Compound 61]
4.9 µM | > 10 µM | > 10 µM | 7.59 µM | CN1CCCNC(=O)C2CCN(CC2)Cc2cccc(c2)Nc2nccc(n2)-c2ccc(cc2)C1 [Compound 78]
6.31 µM | > 10 µM | > 10 µM | > 10 µM | CN1CCNC(=O)C2CCN(CC2)Cc2cccc(c2)Nc2nccc(n2)-c2ccc(cc2)C1 [Compound 82]
0.407 µM | 0.214 µM | > 10 µM | 8.13 µM | C[C@H]1NCc2cc(ccc2N2CCOCC2)Nc2nccc(n2)-c2cccc(c2)OCCCNC1=O [Compound 87]
0.447 µM | 0.195 µM | > 10 µM | 6.76 µM | C[C@@H]1NCc2cc(ccc2N2CCOCC2)Nc2nccc(n2)-c2cccc(c2)OCCCNC1=O [Compound 88]
0.398 µM | 2.82 µM | > 10 µM | > 10 µM | O=C1NCCCOc2cccc(c2)-c2ccnc(n2)Nc2ccc(N3CCOCC3)c(c2)CN2CCC[C@@H]12 [Compound 96]

More lines, now with the values behind:

Compound | IC50 (PLK4 (h)) | IC50 (GSK3β (h)) | IC50 (PLK1 T210D (h)) | IC50 (MDA-MB-231)
COc1ccc2cc1CN1CCC(CC1)C(=O)N(C)CCN(C)c1ccc(cn1)-c1ccnc(n1)N2 [Compound 4] | 2.4 µM | 3.63 µM | > 10 µM | > 10 µM
C[C@@H]1NCc2cc(ccc2N2CCOCC2)Nc2nccc(n2)-c2ccc(cc2)OCCCNC1=O [Compound 5] | 0.162 µM | 0.135 µM | > 10 µM | > 10 µM
O=C1NCCOc2ccc(cc2)-c2ccnc(n2)Nc2ccc(N3CCOCC3)c(c2)CN2CCC1CC2 [Compound 6] | 0.316 µM | 0.741 µM | > 10 µM | 0.363 µM
O=C1NCCCOc2ccc(cc2)-c2ccnc(n2)Nc2ccc(N3CCOCC3)c(c2)CN2CCC[C@@H]12 [Compound 7] | 0.316 µM | 0.372 µM | > 10 µM | > 10 µM
O=C1CN2CCN(CC2)Cc2cc(ccc2N2CCOCC2)Nc2nccc(n2)-c2ccc(cc2)OCCN1 [Compound 9] | 0.417 µM | 1.45 µM | > 10 µM | > 10 µM
CN1CCCNC(=O)[C@H](CO)NCc2cc(cc(N3CCOCC3)c2)Nc2nccc(n2)-c2ccc(cc2)C1 [Compound 10] | 0.513 µM | ~10 µM | > 10 µM | > 10 µM
COc1ccc2cc1CN1CCN(CC1)CC(=O)N(C)CCN(C)c1ccc(cn1)-c1ccnc(n1)N2 [Compound 14] | 1.35 µM | 4.9 µM | > 10 µM | > 10 µM
CN1CCCNC(=O)[C@@H]2CCCN2Cc2cc(cc(N3CCOCC3)c2)Nc2nccc(n2)-c2ccc(cc2)C1 [Compound 16] | 0.617 µM | > 10 µM | > 10 µM | > 10 µM
CN1CCNC(=O)C2CCN(CC2)Cc2cc(cc(N3CCOCC3)c2)Nc2nccc(n2)-c2ccc(cc2)C1 [Compound 68] | 1.55 µM | 5.89 µM | > 10 µM | > 10 µM
COc1ccc2cc1CN(C)CCCNC(=O)C1CCN(CC1)Cc1cc(cc(NC(C)C)c1)Nc1nccc-2n1 [Compound 70] | 1.58 µM | > 10 µM | > 10 µM | > 10 µM
CN1CCCNC(=O)C2CCN(CC2)Cc2cc(cc(N3CCOCC3)c2)Nc2nccc(n2)-c2ccc(cc2)C1 [Compound 72] | 2.34 µM | > 10 µM | > 10 µM | > 10 µM
COc1ccc2cc1CN(C)CCNC(=O)C1CCN(CC1)Cc1cc(cc(NC(C)C)c1)Nc1nccc-2n1 [Compound 75] | 3.09 µM | > 10 µM | > 10 µM | > 10 µM
COc1ccc2cc1CN(C)CCCNC(=O)C1CCN(CC1)Cc1cc(Br)cc(c1)Nc1nccc-2n1 [Compound 76] | 3.24 µM | > 10 µM | > 10 µM | 6.76 µM
COc1ccc2cc1CN(C)CCNC(=O)C1CCN(CC1)Cc1cc(cc(N3CCOCC3)c1)Nc1nccc-2n1 [Compound 77] | 4.79 µM | 3.8 µM | > 10 µM | > 10 µM
COc1ccc2cc1CN(C)CCCNC(=O)C1CCN(CC1)Cc1cc(cc(N3CCOCC3)c1)Nc1nccc-2n1 [Compound 80] | 5.37 µM | > 10 µM | > 10 µM | > 10 µM
COc1ccc2cc1CN(C)CCCNC(=O)C1CCN(CC1)Cc1cccc(c1)Nc1nccc-2n1 [Compound 81] | 5.5 µM | > 10 µM | > 10 µM | > 10 µM
COc1ccc2cc1CN(C)CCNC(=O)C1CCN(CC1)Cc1cccc(c1)Nc1nccc-2n1 [Compound 83] | > 10 µM | > 10 µM | > 10 µM | > 10 µM
O=C1NCCNc2cc(ccn2)-c2ccnc(n2)Nc2ccc(N3CCOCC3)c(c2)CN2CCC1CC2 [Compound 84] | 5.37 µM | 1.55 µM | > 10 µM | > 10 µM
C[C@H]1NCc2cc(ccc2N2CCOCC2)Nc2nccc(n2)-c2ccc(cc2)OCCCNC1=O [Compound 86] | 0.209 µM | 0.0692 µM | > 10 µM | > 10 µM
O=C1NCCCOc2cccc(c2)-c2ccnc(n2)Nc2ccc(N3CCOCC3)c(c2)CN[C@H]1CO [Compound 89] | 0.525 µM | 0.589 µM | > 10 µM | > 10 µM
O=C1NCCCOc2cccc(c2)-c2ccnc(n2)Nc2ccc(N3CCOCC3)c(c2)CN[C@H]1Cc1ccccc1 [Compound 91] | 1.41 µM | 2.69 µM | > 10 µM | > 10 µM
O=C1NCCCOc2ccc(cc2)-c2ccnc(n2)Nc2ccc(N3CCOCC3)c(c2)CN2CCC1CC2 [Compound 92] | 0.398 µM | 1.32 µM | > 10 µM | 2.51 µM
